Drawing on patent EP4755888A1 (ILAb Co., Ltd., priority 2023, dated 2025), this text covers IC50 for 20 compounds.

Structures are written as SMILES.

PD-1/PD-L1, sequence (Q9NZQ7 19-238 limits assumed): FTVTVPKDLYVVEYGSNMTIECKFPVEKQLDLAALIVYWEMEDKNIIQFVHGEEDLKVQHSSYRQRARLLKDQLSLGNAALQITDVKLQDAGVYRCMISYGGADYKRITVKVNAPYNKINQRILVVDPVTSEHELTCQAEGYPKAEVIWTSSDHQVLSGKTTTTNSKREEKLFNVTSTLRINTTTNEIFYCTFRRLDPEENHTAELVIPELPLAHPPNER

The target in this experiment is PD-1/PD-L1 (Homo sapiens, UniProt Q9NZQ7). The experiment in a line: TR-FRET PD-1/PD-L1 binding inhibition at the molecular level (free proteins). To be noted: Tag1-PD-L1 and Tag2-PD-1 proteins, twelve concentrations from 200 nM, 2 hours at room temperature, read-out: FRET assay (IC50). Summed up:
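HTRF read-out at 665/620 nm after 2 h at room temperature. Detection used anti-Tag1 Eu cryptate plus anti-Tag2 XL665 antibodies. Tagged PD-L1 and PD-1 proteins were pre-mixed with compound across twelve […] 1:2 dilutions starting at 200 nM.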
On the technique in general: Time-resolved FRET reads energy transfer from a long-lived donor to a nearby acceptor.
Usually IC50 stands for the concentration that gives 50% inhibition. As to `Cc1c(NC(=O)c2cc3n(n2)CCCC3NCC(=O)O)cccc1-c1cccc(-c2nc3cc(CN4CC[C@@H](C(=O)O)C4)cc(C#N)c3o2)c1C` (stereo partly drawn) [Compound 66, (3R)-1-((2-(3'-(4-((carboxymethyl)amino)-4,5,6,7-tetrahydropyrazolo[1,5-a]pyridine-2-carboxamido)-2,2'-dimethyl-[1,1'-biphenyl]-3-yl)-7-cyanobenzo[d]oxazol-5-yl)methyl)pyrrolidine-3-carboxylic acid], the IC50 was less than 10 nM.

With `Cc1nc(Nc2cccc(-c3cccc(NC(=O)c4cc5n(n4)CCC[C@H]5NC(C)(C)C(=O)O)c3Cl)c2Cl)c2ncccc2n1` [Compound 280, (R)-2-((2-((2,2'-dichloro-3'-((2-methylpyrido[3,2-d]pyrimidin-4-yl)amino)-[1,1'-biphenyl]-3-yl)carbamoyl)-4,5,6,7-tetrahydropyrazolo[1,5-a]pyridin-4-yl)amino)-2-methylpropanoic acid], the IC50 was less than 10 nM. As for `Cc1c(NC(=O)c2cc3n(n2)CCCC3N2CC[C@@H](O)C2)cccc1-c1cccc(Nc2nc(C(F)F)nc3cc(CN4CC[C@@H](O)C4)cnc23)c1C` (stereo partly drawn) [Compound 131, N-(3'-((2-(difluoromethyl)-7-(((R)-3-hydroxypyrrolidin-1-yl)methyl)pyrido[3,2-d]pyrimidin-4-yl)amino)-2,2'-dimethyl-[1,1'-biphenyl]-3-yl)-4-((R)-3-hydroxypyrrolidin-1-yl)-4,5,6,7-tetrahydropyrazolo[1,5-a]pyridine-2-carboxamide], the IC50 was less than 10 nM. The figure for `O=C(Nc1cccc(-c2cccc(NC(=O)c3cc4n(n3)CCC[C@H]4N3CC[C@@H](O)C3)c2Cl)c1Cl)c1ccc(CNCCO)cn1` [Compound 244, (R)-N-(2,2'-dichloro-3'-(5-(((2-hydroxyethyl)amino)methyl)picolinamido)-[1,1'-biphenyl]-3-yl)-4-((R)-3-hydroxypyrrolidin-1-yl)-4,5,6,7-tetrahydropyrazolo[1,5-a]pyridine-2-carboxamide] is less than 10 nM; for `O=C(Nc1cccc(-c2cccc(NC(=O)c3cc4n(n3)CCC[C@@H]4N3CC[C@@H](O)C3)c2Cl)c1Cl)c1ccc(CNCCO)cn1` [Compound 243, (S)-N-(2,2'-dichloro-3'-(5-(((2-hydroxyethyl)amino)methyl)picolinamido)-[1,1'-biphenyl]-3-yl)-4-((R)-3-hydroxypyrrolidin-1-yl)-4,5,6,7-tetrahydropyrazolo[1,5-a]pyridine-2-carboxamide] it is less than 10 nM; for `COc1nc(-c2cccc(-c3cccc(-c4cc5n(n4)CCCC5N4CC[C@@H](O)C4)c3C)c2C)cnc1CNC[C@@H]1CCC(=O)N1` (stereo partly drawn) [Compound 164, (5S)-5-((((5-(3'-(4-((R)-3-hydroxypyrrolidin-1-yl)-4,5,6,7-tetrahydropyrazolo[1,5-a]pyridin-2-yl)-2,2'-dimethyl-[1,1'-biphenyl]-3-yl)-3-methoxypyrazin-2-yl)methyl)amino)methyl)pyrrolidin-2-one] it is 10 to 100 nM.

For the compound `CC(=O)NCCNC1CCCn2nc(C(=O)Nc3cccc(-c4cccc(NC(=O)c5ccc(CNCCO)cn5)c4Cl)c3Cl)cc21` (centres unmarked) [Compound 82, 4-((2-acetamidoethyl)amino)-N-(2,2'-dichloro-3'-(5-(((2-hydroxyethyl)amino)methyl)picolinamido)-[1,1'-biphenyl]-3-yl)-4,5,6,7-tetrahydropyrazolo[1,5-a]pyridine-2-carboxamide], the IC50 was less than 10 nM. The figure for `Cc1c(NC(=O)c2cc3n(n2)CCC[C@H]3N2CCC(O)CC2)cccc1-c1cccc(Nc2nc(C(F)F)nc3cccnc23)c1C` [Compound 288, (R)-N-(3'-((2-(difluoromethyl)pyrido[3,2-d]pyrimidin-4-yl)amino)-2,2'-dimethyl-[1,1'-biphenyl]-3-yl)-4-(4-hydroxypiperidin-1-yl)-4,5,6,7-tetrahydropyrazolo[1,5-a]pyridine-2-carboxamide] is 10 to 100 nM; for `CC(=O)NCCNC1CCCn2nc(C(=O)Nc3cccc(-c4cccc(Nc5nc(C(F)F)nc6cc(CN7CC[C@@H](O)C7)cnc56)c4Cl)c3Cl)cc21` (stereo partly drawn) [Compound 139, 4-((2-acetamidoethyl)amino)-N-(2,2'-dichloro-3'-((2-(difluoromethyl)-7-(((R)-3-hydroxypyrrolidin-1-yl)methyl)pyrido[3,2-d]pyrimidin-4-yl)amino)-[1,1'-biphenyl]-3-yl)-4,5,6,7-tetrahydropyrazolo[1,5-a]pyridine-2-carboxamide] it is 10 to 100 nM. The figure for `O=C(Nc1cccc(-c2cccc(NC(=O)c3ncc(CN4CC[C@@H](O)C4)cc3F)c2Cl)c1Cl)c1cc2n(n1)CCCC2N1CC[C@@H](C(=O)O)C1` (stereo partly drawn) [Compound 205, (3R)-1-(2-((2,2'-dichloro-3'-(3-fluoro-5-(((R)-3-hydroxypyrrolidin-1-yl)methyl)picolinamido)-[1,1'-biphenyl]-3-yl)carbamoyl)-4,5,6,7-tetrahydropyrazolo[1,5-a]pyridin-4-yl)pyrrolidine-3-carboxylic acid] is less than 10 nM; for `Cc1c(NC(=O)c2ccc(CN3CC[C@@H](O)C3)cn2)cccc1-c1cccc(NC(=O)c2cc3n(n2)CCCC3NC[C@@H]2CCC(=O)N2)c1C` (stereo partly drawn) [Compound 93, N-(3'-(5-(((R)-3-hydroxypyrrolidin-1-yl)methyl)picolinamido)-2,2'-dimethyl-[1,1'-biphenyl]-3-yl)-4-((((S)-5-oxopyrrolidin-2-yl)methyl)amino)-4,5,6,7-tetrahydropyrazolo[1,5-a]pyridine-2-carboxamide] it is less than 10 nM; for `Cc1c(NC(=O)c2ccc(CNCCO)cn2)cccc1-c1cccc(NC(=O)c2cc3n(n2)CCCC3N2CCC(C(=O)O)CC2)c1C` (centres unmarked) [Compound 79, 1-(2-((3'-(5-(((2-hydroxyethyl)amino)methyl)picolinamido)-2,2'-dimethyl-[1,1'-biphenyl]-3-yl)carbamoyl)-4,5,6,7-tetrahydropyrazolo[1,5-a]pyridin-4-yl)piperidine-4-carboxylic acid] it is less than 10 nM.

As to `CC(C)c1nc(Nc2cccc(-c3cccc(NC(=O)c4cc5n(n4)CCC[C@@H]5N4CCC(C(=O)O)CC4)c3Cl)c2Cl)c2ncccc2n1` [Compound 297, (S)-1-(2-((2,2'-dichloro-3'-((2-isopropylpyrido[3,2-d]pyrimidin-4-yl)amino)-[1,1'-biphenyl]-3-yl)carbamoyl)-4,5,6,7-tetrahydropyrazolo[1,5-a]pyridin-4-yl)piperidine-4-carboxylic acid], the IC50 was 100 to 1000 nM. The figure for `COc1cc(C(=O)Nc2cccc(-c3cccc(NC(=O)c4cc5n(n4)CCCC5N4CC[C@@H](C(=O)O)C4)c3Cl)c2Cl)cc(F)c1CNCCO` (stereo partly drawn) [Compound 194, (3R)-1-(2-((2,2'-dichloro-3'-(3-fluoro-4-(((2-hydroxyethyl)amino)methyl)-5-methoxybenzamido)-[1,1'-biphenyl]-3-yl)carbamoyl)-4,5,6,7-tetrahydropyrazolo[1,5-a]pyridin-4-yl)pyrrolidine-3-carboxylic acid] is less than 10 nM; for `O=C(Nc1cccc(-c2cccc(Nc3nc(C(F)(F)F)nc4cccnc34)c2Cl)c1Cl)c1cc2n(n1)CCC[C@@H]2N1CCC(C(=O)O)CC1` [Compound 273, (S)-1-(2-((2,2'-dichloro-3'-((2-(trifluoromethyl)pyrido[3,2-d]pyrimidin-4-yl)amino)-[1,1'-biphenyl]-3-yl)carbamoyl)-4,5,6,7-tetrahydropyrazolo[1,5-a]pyridin-4-yl)piperidine-4-carboxylic acid] it is 10 to 100 nM; for `O=C(Nc1cccc(-c2cccc(NC(=O)c3cc4n(n3)CCCC4N3CCC(C(=O)O)CC3)c2Cl)c1Cl)c1ccc(CN2CC[C@@H](O)C2)cn1` (stereo partly drawn) [Compound 107, 1-(2-((2,2'-dichloro-3'-(5-(((R)-3-hydroxypyrrolidin-1-yl)methyl)picolinamido)-[1,1'-biphenyl]-3-yl)carbamoyl)-4,5,6,7-tetrahydropyrazolo[1,5-a]pyridin-4-yl)piperidine-4-carboxylic acid] it is 10 to 100 nM. For `Cc1c(NC(=O)c2cc3n(n2)CCC[C@@H]3NCCO)cccc1-c1cccc(NC(=O)c2cc3n(n2)CCC[C@@H]3NCCO)c1C` [Compound 253, (4S,4'S)-N,N'-(2,2'-dimethyl-[1,1'-biphenyl]-3,3'-diyl)bis(4-((2-hydroxyethyl)amino)-4,5,6,7-tetrahydropyrazolo[1,5-a]pyridine-2-carboxamide)] the value was less than 10 nM; for `O=C(Nc1cccc(-c2cccc(Nc3nccc4cc(CN5CC[C@@H](O)C5)cnc34)c2Cl)c1Cl)c1cc2n(n1)CCCC2O` (stereo partly drawn) [Compound 18, N-(2,2'-dichloro-3'-((3-(((R)-3-hydroxypyrrolidin-1-yl)methyl)-1,7-naphthyridin-8-yl)amino)-[1,1'-biphenyl]-3-yl)-4-hydroxy-4,5,6,7-tetrahydropyrazolo[1,5-a]pyridine-2-carboxamide], 10 to 100 nM. For `CC(=O)NCCNC1CCCn2nc(C(=O)Nc3cccc(-c4cccc(NC(=O)c5nc6c(n5C)CCN(CCC57CCC(C(=O)O)(CC5)C7)C6)c4Cl)c3Cl)cc21` (centres unmarked) [Compound 52, 4-(2-(2-((3'-(4-((2-acetamidoethyl)amino)-4,5,6,7-tetrahydropyrazolo[1,5-a]pyridine-2-carboxamido)-2,2'-dichloro-[1,1'-biphenyl]-3-yl)carbamoyl)-1-methyl-6,7-dihydro-1H-imidazo[4,5-c]pyridin-5(4H)-yl)ethyl)bicyclo[2.2.1]heptane-1-carboxylic acid] the value was less than 10 nM; for `O=C(Nc1cccc(-c2cccc(Nc3nccc4cc(CN5CC(F)C5)cnc34)c2Cl)c1Cl)c1cc2n(n1)CCC[C@@H]2N1CCC(C(=O)O)CC1` [Compound 283, (S)-1-(2-((2,2'-dichloro-3'-((3-((3-fluoroazetidin-1-yl)methyl)-1,7-naphthyridin-8-yl)amino)-[1,1'-biphenyl]-3-yl)carbamoyl)-4,5,6,7-tetrahydropyrazolo[1,5-a]pyridin-4-yl)piperidine-4-carboxylic acid], 10 to 100 nM.
